# Molecular target: T1, human cGAS (residues 161-522) (Homo sapiens, UniProt Q8N884)
# T1 construct: Recombinantly expressed purified human cGAS (residues 161-522) was used at 25 nM; made in house
# Assay: cGAS Activity Assay - Malachite Green (coupled enzymatic assay, phosphate detection)
# Type: biochemical
# Settings: recombinant human cGAS 25 nM, 80 μM ATP, 80 μM GTP, 100 nM ISD, 4 hour at RT
# Procedure: cGAS Activity Assay—Malachite Green
# Compounds were tested for cGAS inhibition in a coupled enzymatic assay based on Phosphate detection by Malachite Green. Final assay conditions were 20 mM TRIS pH 7.5 (Applichem), 5 mM MgCl2 (Sigma) and 0.01% BSA (Sigma) supplemented with 80 μM ATP (Sigma), 80 μM GTP (Sigma) and 100 nM Interferon Stimulating DNA (ISD) (Microsynth). Recombinantly expressed purified human cGAS (residues 161-522) was used at 25 nM.
# All compounds were prepared as 10 mM stock solutions in DMSO and a 16 pt dilution series in DMSO with a dilution factor of 2.5 was prepared. 1 μL of DMSO dilution series was transferred to 32.3 μL reaction buffer, mixed by pipetting up/down, spun for 1 minute at 3000 rpm and was visually inspected for precipitation. 5 μL of 3-fold enzyme stock solution were transferred to an empty 384-well Black/Clear Flat Bottom Polystyrene NBS (Corning) rows 3-24. Rows 1-2 were filled with assay buffer. Plates were spun 10 seconds at 1000 rpm (164×g). 5 μL of compound intermediate dilution was added and mixed by pipetting up/down to rows 3-24. Rows 1-2 were filled with 3.1% DMSO assay buffer. Plates were spun 10 seconds at 1000 rpm (164×g). 5 μL 3-fold Nucleotide/DNA mix was added to all wells to start the reaction. Plates were spun 10 seconds at 1000 rpm (164×g) and incubated for 4 hour at room temperature (RT) in the dark. 5 μL 4 U/mL PPase (Sigma) were added to all wells. Plates spun 10 seconds at 1000 rpm (164×g). 10 μL BioMol green Solution (Enzo Life Sciences) was added to all wells. Plates spun 10 seconds at 1000 rpm (164×g) and incubated 30 minutes at RT in the dark. Absorbance data was collected 620 nm on an EnVision Multilable Reader (Perkin Elmer) and the following measurement settings were used: excitation filter photometric was 620 nm; excitation from the top; measurement height was 1 mm; number of flashes was 30; number of flashes integrated was 1.
# All plates are checked for abnormalities and outliers in the Blank Control (no protein, row 1) and the Neutral Control (no compound, row 2) are excluded using the 3*SD rule. Data was normalized to 0 and 100% by Blank and Neutral Control and each curve was fitted and judged using the 4 parameter logistic equation to determine the IC50 for cGAS inhibition.
# Table 2 provides IC50 values (μM ) for cGAS inhibition obtained for particular examples of the present invention as measured by the above-described assay.
# T1 sequence (Q8N884 161-522): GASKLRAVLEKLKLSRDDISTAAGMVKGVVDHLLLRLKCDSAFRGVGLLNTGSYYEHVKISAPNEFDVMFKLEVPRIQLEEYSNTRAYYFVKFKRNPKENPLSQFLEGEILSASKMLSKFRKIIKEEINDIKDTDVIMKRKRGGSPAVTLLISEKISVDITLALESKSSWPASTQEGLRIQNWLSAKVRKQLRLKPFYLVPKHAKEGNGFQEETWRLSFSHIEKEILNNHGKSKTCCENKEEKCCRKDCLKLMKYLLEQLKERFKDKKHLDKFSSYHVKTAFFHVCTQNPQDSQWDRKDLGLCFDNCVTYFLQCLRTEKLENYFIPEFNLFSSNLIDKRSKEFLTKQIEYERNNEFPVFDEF
row,IC50,SMILES
1,1.85 µM,"Cn1cncc1/C(O)=C(\C#N)C(=O)Nc1ccc(C(F)(F)F)cc1 [Example 1, (Z)-2-Cyano-3-hydroxy-3-(1-methyl-1H-imidazol-5-yl)-N-(4-(trifluoromethyl)phenyl)acrylamide]"
2,1.57 µM,"Cc1oncc1/C(O)=C(\C#N)C(=O)Nc1cccnc1 [Example 2, (Z)-2-cyano-3-hydroxy-3-(5-methylisoxazol-4-yl)-N-(3-pyridyl)prop-2-]"
3,0.22 µM,"Cc1oncc1/C(O)=C(\C#N)C(=O)Nc1ccc2c(c1)CCC2=O [Example 3, (Z)-2-cyano-3-hydroxy-3-(5-methylisoxazol-4-yl)-N-(1-oxoindan-5-yl)prop-2-enamide]"
4,6.31 µM,"Cn1nncc1/C(O)=C(\C#N)C(=O)Nc1ccc(C(F)(F)F)cc1 [Example 4, (Z)-2-cyano-3-hydroxy-3-(1-methyl-1H-1,2,3-triazol-5-yl)-N-(4-(trifluoromethyl)phenyl) acrylamide]"
5,0.17 µM,"Cc1oncc1/C(O)=C(\C#N)C(=O)Nc1ccn(C)c(=O)c1 [Example 5, (Z)-2-cyano-3-hydroxy-3-(5-methylisoxazol-4-yl)-N-(1-methyl-2-oxo-4-pyridyl)prop-2-enamide]"
6,0.18 µM,"Cc1oncc1/C(O)=C(\C#N)C(=O)Nc1cc[nH]c(=O)c1 [Example 6, (Z)-2-cyano-3-hydroxy-3-(5-methylisoxazol-4-yl)-N-(2-oxo-1H-pyridin-4-yl)prop-2-enamide]"
7,1.02 µM,"COc1ccc(NC(=O)/C(C#N)=C(\O)c2cnoc2C)nn1 [Example 7, (Z)-2-cyano-3-hydroxy-N-(6-methoxypyridazin-3-yl)-3-(5-methylisoxazol-4-yl)prop-2-enamide]"
8,1.34 µM,"COc1ccc(NC(=O)/C(C#N)=C(\O)c2cnoc2C)cn1 [Example 8, (Z)-2-cyano-3-hydroxy-N-(6-methoxy-3-pyridyl)-3-(5-methylisoxazol-4-yl)prop-2-enamide]"
9,1.27 µM,"COC(=O)c1sccc1NC(=O)/C(C#N)=C(\O)c1cnoc1C [Example 9, methyl (Z)-3-(2-cyano-3-hydroxy-3-(5-methylisoxazol-4-yl)acrylamido) thiophene-2-carboxylate]"
10,0.82 µM,"CCOC(=O)c1c(C)csc1NC(=O)/C(C#N)=C(\O)c1cnoc1C [Example 10, ethyl (Z)-2-(2-cyano-3-hydroxy-3-(5-methylisoxazol-4-yl)acrylamido)-4-methylthiophene-3-carboxylate]"
11,3.99 µM,"Cc1nocc1/C(O)=C(\C#N)C(=O)Nc1ccc(C(F)(F)F)cc1 [Example 11, (Z)-2-cyano-3-hydroxy-3-(3-methylisoxazol-4-yl)-N-(4-(trifluoromethyl)phenyl) acrylamide]"
12,1.13 µM,"COC(=O)c1ccc(NC(=O)/C(C#N)=C(\O)c2conc2C)cc1 [Example 12, methyl (Z)-4-(2-cyano-3-hydroxy-3-(3-methylisoxazol-4-yl)acrylamido) benzoate]"
13,7.19 µM,"N#C/C(C(=O)Nc1ccc(C(F)(F)F)cc1)=C(/O)c1cnco1 [Example 13, (Z)-2-cyano-3-hydroxy-3-(oxazol-5-yl)-N-(4-(trifluoromethyl)phenyl) acrylamide]"
14,8.48 µM,"Cc1cnoc1/C(O)=C(\C#N)C(=O)Nc1ccc(C(F)(F)F)cc1 [Example 14, (Z)-2-cyano-3-hydroxy-3-(4-methylisoxazol-5-yl)-N-(4-(trifluoromethyl)phenyl) acrylamide]"
15,4.76 µM,"Cc1sncc1/C(O)=C(\C#N)C(=O)Nc1ccc(C(F)(F)F)cc1 [Example 15, (Z)-2-cyano-3-hydroxy-3-(5-methylisothiazol-4-yl)-N-(4-(trifluoromethyl)phenyl) acrylamide]"
16,1.79 µM,"Cc1oncc1/C(O)=C(\C#N)C(=O)Nc1cccc2ccccc12 [Example 16, (Z)-2-cyano-3-hydroxy-3-(5-methylisoxazol-4-yl)-N-(naphthalen-1-yl)acrylamide]"
17,1.11 µM,"Cc1oncc1/C(O)=C(\C#N)C(=O)Nc1ccc2ccccc2c1 [Example 17, (Z)-2-cyano-3-hydroxy-3-(5-methylisoxazol-4-yl)-N-(naphthalen-2-yl)acrylamide]"
18,0.62 µM,"Cc1oncc1/C(O)=C(\C#N)C(=O)Nc1ccncc1 [Example 18, (Z)-2-cyano-3-hydroxy-3-(5-methylisoxazol-4-yl)-N-(4-pyridyl)prop-2-enamide]"
19,0.84 µM,"COc1cnc(NC(=O)/C(C#N)=C(\O)c2cnoc2C)cn1 [Example 19, (Z)-2-cyano-3-hydroxy-N-(5-methoxypyrazin-2-yl)-3-(5-methylisoxazol-4-yl)prop-2-enamide]"
20,0.5 µM,"Cc1cccc(C)c1NC(=O)c1ccc(NC(=O)/C(C#N)=C(\O)c2cnoc2C)cn1 [Example 20, (Z)-5-(2-cyano-3-hydroxy-3-(5-methylisoxazol-4-yl)acrylamido)-N-(2,6-dimethylphenyl) picolinamide]"
21,1.06 µM,"COc1cccc(-c2cc3cc(NC(=O)/C(C#N)=C(\O)c4cnoc4C)ccc3c(=O)[nH]2)c1 [Example 21, (Z)-2-cyano-3-hydroxy-N-(3-(3-methoxyphenyl)-1-oxo-1,2-dihydroisoquinolin-6-yl)-3-(5-methylisoxazol-4-yl)acrylamide]"
22,0.97 µM,"Cc1oncc1/C(O)=C(\C#N)C(=O)Nc1nc2c(c(-c3ccccc3)n1)CCCC2 [Example 22, (Z)-2-cyano-3-hydroxy-3-(5-methylisoxazol-4-yl)-N-(4-phenyl-5,6,7,8-tetrahydroquinazolin-2-yl)acrylamide]"
23,5.21 µM,"COc1nc(NC(=O)/C(C#N)=C(\O)c2cnoc2C)nc2c1CCCC2 [Example 23, (Z)-2-cyano-3-hydroxy-N-(4-methoxy-5,6,7,8-tetrahydroquinazolin-2-yl)-3-(5-methylisoxazol-4-yl)acrylamide]"
24,0.45 µM,"Cc1nc(NC(=O)/C(C#N)=C(\O)c2cnoc2C)nc2c1CS(=O)(=O)CC2 [Example 24, (Z)-2-cyano-3-hydroxy-N-(4-methyl-6,6-dioxido-7,8-dihydro-5H-thiopyrano[4,3-d]pyrimidin-2-yl)-3-(5-methylisoxazol-4-yl)acrylamide]"
